Patent US20230226027A1, “THIENOPYRIDINE DERIVATIVES FOR USE IN THE TREATMENT OF CORONAVIRUS INFECTION” (INSERM (INSTITUT NATIONAL DE LA SANTÉ ET DE LA RECHERCHE …, priority 2020, published 2023)
Read-outs that look alike come from different tables or passages of the source.

Tests used:
Calu-3 cells = experiment: Cellular viability assay (MTT) in Calu-3 cells; assay type: cell-based, human; details: 24 hours of treatment, MTT (FIG. 3)
Description: FIG. 3. Analysis of cellular viability in human lung epithelial Calu-3 cells treated with AM-001. Calu-3 cells treated for 24 hours with the indicated concentrations of AM-001. Cellular viability was measured with the Cell Proliferation Kit I (MTT) (Roche Applied Science, Indianapolis, IN) according to the manufacturer’s protocol.
Calu-3 cells were plated 48 hours before treatment in 96-wells plates at a density of 1.10^5 cells per well. After 24 hours of treatment with the different concentrations of AM-001, cells viability was measured using the Cell Proliferation Kit I (MTT) (Roche Applied Science, Indianapolis, IN) according to the manufacturer’s protocol.

SARS-CoV-2 [1] = assay type: cell-based; details: VeroE6 cells, 1 h pretreatment, MOI 0.001, viral RNA in supernatant 24 hours post-infection (FIG. 1)
SARS-CoV-2 [2] = assay type: cell-based; details: Calu-3 cells, 2 h pre-treatment, MOI 0.001, 24 hours post-infection (FIGS. 2A-2B)
SARS-CoV-2 [3] = assay type: cell-based; details: Calu-3 cells, concentration ≥ 10 µM, even when given 4 h post-infection, TCID50 24 hours post-infection (FIG. 4)

Nc1c(C(=O)Nc2ccc(F)cc2)sc2nc(-c3cccs3)cc(-c3ccccc3)c12 [AM-001]
cellular toxicity (Calu-3 cells): no detected cellular toxicity | replication of SARS-CoV-2 (SARS-CoV-2 [1]): Inhibition of SARS-CoV-2 replication | replication of SARS-CoV-2 (SARS-CoV-2 [1]; listed as AM001): significantly decreases the replication | SARS CoV-2 replication (viral RNA and infectious particles in supernatant) (SARS-CoV-2 [2]): inhibit SARS CoV-2 replication | infectious virus production (SARS-CoV-2 [3]): totally blocks infectious virus production
